# In ChEMBL document CHEMBL5120857, “Rational design, synthesis and biological evaluation of dual PARP-1/2 and TNKS1/2 inhibitors for cancer therapy” (Eur J Med Chem, 2022):
# Activity calls are given as the source filed them. The rule behind the calls is not given here.
# Key:
# HCT-116 [1] = experiment: Inhibition of PARP in human HCT-116 cells assessed as decrease in pADPr levels at 10 uM by Western blot analysis; assay type: cell-based
# HCT-116 [2] = experiment: Induction of apoptosis in human HCT-116 cells assessed as late apoptotic cells at 1 uM incubated for 3 days by annexinV-FITC/propidium iodide staining based flow cytometry (reference value: 8.71 %); assay type: functional; settings: time 3 day
# HCT-116 [3] = experiment: Induction of cell cycle arrest in human HCT-116 cells assessed as S phase cells at 1 uM incubated for 3 days by propidium iodide staining based flow cytometry (reference value: 11.26 %); assay type: functional; settings: time 3 day
# [4] = target: T1, Protein mono-ADP-ribosyltransferase TIPARP (Homo sapiens, UniProt Q7Z3E1); experiment: Inhibition of PARP-7 (unknown origin)
# T1 sequence (Q7Z3E1 whole entry): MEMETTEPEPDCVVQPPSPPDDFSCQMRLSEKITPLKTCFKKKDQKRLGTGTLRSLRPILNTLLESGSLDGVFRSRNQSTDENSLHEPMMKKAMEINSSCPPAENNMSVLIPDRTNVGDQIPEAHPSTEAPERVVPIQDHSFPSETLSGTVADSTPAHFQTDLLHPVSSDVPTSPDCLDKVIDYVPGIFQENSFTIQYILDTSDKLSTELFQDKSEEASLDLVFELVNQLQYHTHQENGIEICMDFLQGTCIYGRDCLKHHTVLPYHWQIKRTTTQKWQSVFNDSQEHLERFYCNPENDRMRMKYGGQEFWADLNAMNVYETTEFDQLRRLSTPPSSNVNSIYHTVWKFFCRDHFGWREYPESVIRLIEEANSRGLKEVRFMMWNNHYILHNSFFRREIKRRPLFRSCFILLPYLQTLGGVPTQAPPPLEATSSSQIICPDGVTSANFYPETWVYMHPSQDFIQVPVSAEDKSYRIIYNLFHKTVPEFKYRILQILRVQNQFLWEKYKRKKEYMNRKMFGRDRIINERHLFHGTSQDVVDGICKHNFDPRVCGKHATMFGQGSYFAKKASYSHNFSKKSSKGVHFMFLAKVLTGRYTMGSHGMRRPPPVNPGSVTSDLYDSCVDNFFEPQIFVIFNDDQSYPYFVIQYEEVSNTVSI
# [5] = target: T2, Poly [ADP-ribose] polymerase tankyrase-1 (Homo sapiens) (UniProt O95271); settings: dose 10.0 nM, time 1.0 hrs
# T2 sequence (whole entry): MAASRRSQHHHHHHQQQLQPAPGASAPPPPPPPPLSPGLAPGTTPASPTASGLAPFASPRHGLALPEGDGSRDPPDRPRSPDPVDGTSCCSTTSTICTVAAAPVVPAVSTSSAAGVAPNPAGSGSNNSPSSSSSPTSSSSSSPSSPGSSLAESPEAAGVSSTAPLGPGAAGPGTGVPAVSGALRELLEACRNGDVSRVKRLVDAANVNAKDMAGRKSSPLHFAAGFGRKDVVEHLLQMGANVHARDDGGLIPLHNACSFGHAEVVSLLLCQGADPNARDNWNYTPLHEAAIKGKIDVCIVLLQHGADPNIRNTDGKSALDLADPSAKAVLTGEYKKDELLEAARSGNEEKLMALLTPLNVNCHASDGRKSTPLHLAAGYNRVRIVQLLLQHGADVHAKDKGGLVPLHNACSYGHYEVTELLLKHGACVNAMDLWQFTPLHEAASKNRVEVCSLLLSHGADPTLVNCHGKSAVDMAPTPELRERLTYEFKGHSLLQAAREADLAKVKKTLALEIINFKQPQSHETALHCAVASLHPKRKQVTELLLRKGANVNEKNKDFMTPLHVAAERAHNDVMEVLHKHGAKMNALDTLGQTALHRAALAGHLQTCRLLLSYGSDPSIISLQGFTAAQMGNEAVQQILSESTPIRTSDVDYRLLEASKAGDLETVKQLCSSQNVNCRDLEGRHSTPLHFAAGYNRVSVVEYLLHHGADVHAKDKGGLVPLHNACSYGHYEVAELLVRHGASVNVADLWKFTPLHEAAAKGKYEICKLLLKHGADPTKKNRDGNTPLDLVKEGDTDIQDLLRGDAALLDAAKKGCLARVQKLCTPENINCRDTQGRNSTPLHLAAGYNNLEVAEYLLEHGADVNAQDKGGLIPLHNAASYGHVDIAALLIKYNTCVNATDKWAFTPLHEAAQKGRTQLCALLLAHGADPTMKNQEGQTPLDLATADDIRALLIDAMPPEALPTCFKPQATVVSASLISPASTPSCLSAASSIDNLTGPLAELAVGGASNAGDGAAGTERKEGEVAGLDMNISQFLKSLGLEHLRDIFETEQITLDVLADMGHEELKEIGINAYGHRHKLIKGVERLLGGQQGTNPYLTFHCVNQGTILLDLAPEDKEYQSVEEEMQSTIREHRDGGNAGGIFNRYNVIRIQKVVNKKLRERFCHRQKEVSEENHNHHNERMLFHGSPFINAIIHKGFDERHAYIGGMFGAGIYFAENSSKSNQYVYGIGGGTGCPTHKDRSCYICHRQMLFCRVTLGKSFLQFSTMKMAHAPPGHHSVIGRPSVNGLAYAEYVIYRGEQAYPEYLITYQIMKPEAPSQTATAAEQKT
structure (smiles),measurement,setting,value
COc1ccc(NC(=O)c2ccc(NC(=O)N3CCN(C(=O)c4cc(Cc5n[nH]c(=O)c6ccccc56)ccc4F)CC3)cc2)cc1,inhibition,HCT-116 [1],Active
same,Activity,HCT-116 [2],15.3%
same,Activity,HCT-116 [3],9.31%
same,IC50,[4],0.015 µM
same,inhibition,[5],28%
